In brackets after ≈: the same amount, converted by molar mass.
Tests used:
CYP3A = assay: In vitro metabolism of Compound A; assay type: in vitro ADME; details: in vitro data
[1] = Compound A monotherapy clinical study; assay type: in vivo, human
[2] = Solubility of the solid form (Form F) of Compound A; assay type: physicochemical
[3] = Solid form stability of Form F at long-term and accelerated condition; assay type: physicochemical
[4] = Hygroscopicity of the solid form (Form F) of Compound A; assay type: physicochemical; details: at 80% relative humidity (RH)

For `O=C1CCc2c(Oc3ccc4c(c3)[C@H]3[C@H](NC(=O)Nc5cc(F)c(F)cc5F)[C@H]3O4)ccnc2N1` [Compound A, 1-((1S,1aS,6bS)-5-((7-oxo-5,6,7,8-tetrahydro-1,8-naphthyridin-4-yl)oxy)-1a,6b-dihydro-1H-cyclopropa[b]benzofuran-1-yl)-3-(2,4,5-trifluorophenyl) urea], which Main metabolic pathway (CYP3A) is on record?
The Main metabolic pathway was “mainly metabolized by the CYP3A pathway”.

What about the “MTD (maximum tolerated dose)” value ([1]; Compound A monotherapy, QD) of the same compound?
Its value is 40 mg.

What about the “Increased incidence of ocular AEs” value ([1]; emerging data from the ongoing Compound A clinical study) of the same compound?
Its value is “no evidence”.

What about the solubility ([2]; 0.1N HCl, simulated gastric fluid, in 0.1N HCI) of the same compound?
The solubility was 240 µg/mL (≈ 497 µM).

What about the solubility ([2]; medium with 0.5% hexadecyl trimethyl ammonium bromide (HTAB), aqueous with cosolvent or surfactant or cyclodextrin, with 0.5% HTAB (hexadecyl trimethyl ammonium bromide)) of the same compound?
The solubility was 310 µg/mL (≈ 643 µM).

And the solubility ([2]; medium with 1% sodium lauryl sulphate (SLS), aqueous with cosolvent or surfactant or cyclodextrin, with 1% SLS (sodium lauryl sulphate))?
Its solubility is 450 µg/mL (≈ 933 µM).

And the solubility ([2]; pH 4.5 buffer, pH 4.5, aqueous buffer)?
The solubility was less than 5 µg/mL.

And the solubility ([2]; pH 6.8 buffer, pH 6.8, aqueous buffer)?
The solubility was less than 5 µg/mL.

What about the “Stability: time Form F is in amorphous form” value ([3]; accelerated condition (40° C./75% RH)) of the same compound?
Its value is “(25° C./60% RH) as well as for 6 months at accelerated condition (40° C./”.

What about the “Stability: time Form F is in amorphous form” value ([3]; long-term condition (25° C./60% RH)) of the same compound?
The value was “Form F is in amorphous form for 24 months at long-term condition”.

And the “Hygroscopicity (classification)” value [4]?
The value was “moderately hygroscopic”.

And the “Hygroscopicity: moisture absorption” value ([4]; actual moisture of 81.5%)?
Its value is 81.5% and a moisture absorption of about 5.425%; the sample was.
